Measured values as given in ChEMBL document CHEMBL4312023, “Design of novel monoamine oxidase-B inhibitors based on piperine scaffold: Structure-activity-toxicity, drug-likeness and efflux transport studies” (Eur J Med Chem, 2020).
Calls of active or inactive are those of the source. The rule behind the calls is not given here.

What was measured:
[1] = Chromatographic hydrophobicity index of compound at 250 uM at pH 7.4 by HPLC analysis; type: ADME; conditions: pH 7.4, 250 µM
[2] = Retention time of compound at pH 7.4 by LC-UV analysis; type: physicochemical; conditions: buffer
Homo sapiens = organism: Homo sapiens; test: Selectivity index, ratio of IC50 for human microsomal MAO-A expressed in baculovirus infected […] cells to IC50 for human microsomal MAO-B expressed in baculovirus infected […] cells using kynuramine as substrate
[3] = target: T1, Amine oxidase [flavin-containing] B (Homo sapiens, UniProt P27338); test: biochemical; type: cell-based, BTI-TN-5B1-4
T1 sequence (P27338 whole entry): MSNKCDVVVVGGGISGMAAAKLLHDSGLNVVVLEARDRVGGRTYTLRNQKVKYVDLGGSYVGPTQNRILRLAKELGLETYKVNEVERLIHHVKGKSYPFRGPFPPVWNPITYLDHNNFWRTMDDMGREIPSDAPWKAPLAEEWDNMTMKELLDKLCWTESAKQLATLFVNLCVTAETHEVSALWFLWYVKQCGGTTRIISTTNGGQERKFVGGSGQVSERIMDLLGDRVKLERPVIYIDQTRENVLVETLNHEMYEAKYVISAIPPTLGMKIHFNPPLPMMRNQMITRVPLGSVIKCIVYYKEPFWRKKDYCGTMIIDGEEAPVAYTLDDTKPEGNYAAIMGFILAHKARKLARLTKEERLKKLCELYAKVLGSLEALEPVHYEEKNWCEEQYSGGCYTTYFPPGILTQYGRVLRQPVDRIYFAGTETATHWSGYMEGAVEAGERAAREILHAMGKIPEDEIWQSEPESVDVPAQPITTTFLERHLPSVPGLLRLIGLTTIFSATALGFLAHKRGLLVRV
Description: Inhibition of human microsomal MAO-B expressed in baculovirus infected BTI-TN-5B1-4 cells assessed as reduction in 4-hydroxyquinoline formation using kynuramine as substrate preincubated with substrate for 10 mins followed by enzyme addition by spectrophotometric analysis

[4] = target: T2, Amine oxidase [flavin-containing] A (Homo sapiens, UniProt P21397); conditions: BTI-TN-5B1-4, human, read-out: INH
T2 sequence (P21397 whole entry): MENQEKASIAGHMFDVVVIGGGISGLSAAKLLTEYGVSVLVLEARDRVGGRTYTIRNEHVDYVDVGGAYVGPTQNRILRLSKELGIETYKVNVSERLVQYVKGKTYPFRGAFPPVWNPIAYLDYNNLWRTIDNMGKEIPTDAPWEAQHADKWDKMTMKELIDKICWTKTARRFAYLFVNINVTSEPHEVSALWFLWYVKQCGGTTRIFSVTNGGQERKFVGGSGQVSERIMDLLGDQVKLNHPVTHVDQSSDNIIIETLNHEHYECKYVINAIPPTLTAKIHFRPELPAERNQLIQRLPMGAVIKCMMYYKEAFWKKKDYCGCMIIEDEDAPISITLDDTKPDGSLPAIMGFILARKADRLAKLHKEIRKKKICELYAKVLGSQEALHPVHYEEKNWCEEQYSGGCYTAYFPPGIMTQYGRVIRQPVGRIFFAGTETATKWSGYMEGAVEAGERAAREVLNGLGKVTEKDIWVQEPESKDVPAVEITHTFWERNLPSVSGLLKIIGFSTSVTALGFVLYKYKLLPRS
Description: Inhibition of human microsomal MAO-A expressed in baculovirus infected BTI-TN-5B1-4 cells assessed as reduction in 4-hydroxyquinoline formation at 10 uM using kynuramine as substrate preincubated with substrate for 10 mins followed by enzyme inhibition by spectrophotometric analysis

SH-SY5Y [5] = test: (§1) Cytotoxicity against human SH-SY5Y cells assessed as cellular metabolic activity by measuring resazurin reduction at 10 to 50 uM incubated for 24 hrs followed by incubation with resazurin for 2 hrs by fluorescence based assay (reference value: >85%); type: ADME, cell-based; conditions: sh-sy5y, 24 h, 50 µM
[6] = target: T3, ATP-dependent translocase ABCB1 (Homo sapiens, UniProt P08183); test: (§2) Inhibition of P-gp in human Caco2 cells assessed as decrease in Rho123 efflux by measuring decrease in ratio between fluorescence intensity of Zos-inhibited Rho123 accumulation and fluorescence intensity of non-inhibited Rho123 accumulation at 10 uM using Rho123 as substrate preincubated for 30 mins in presence of 5 uM P-gp inhibitor, Zos followed by incubation with Rhodamine 123 for 90 mins by fluorescence spectroscopy analysis; type: cell-based; conditions: 1.5 h
T3 sequence (P08183 whole entry): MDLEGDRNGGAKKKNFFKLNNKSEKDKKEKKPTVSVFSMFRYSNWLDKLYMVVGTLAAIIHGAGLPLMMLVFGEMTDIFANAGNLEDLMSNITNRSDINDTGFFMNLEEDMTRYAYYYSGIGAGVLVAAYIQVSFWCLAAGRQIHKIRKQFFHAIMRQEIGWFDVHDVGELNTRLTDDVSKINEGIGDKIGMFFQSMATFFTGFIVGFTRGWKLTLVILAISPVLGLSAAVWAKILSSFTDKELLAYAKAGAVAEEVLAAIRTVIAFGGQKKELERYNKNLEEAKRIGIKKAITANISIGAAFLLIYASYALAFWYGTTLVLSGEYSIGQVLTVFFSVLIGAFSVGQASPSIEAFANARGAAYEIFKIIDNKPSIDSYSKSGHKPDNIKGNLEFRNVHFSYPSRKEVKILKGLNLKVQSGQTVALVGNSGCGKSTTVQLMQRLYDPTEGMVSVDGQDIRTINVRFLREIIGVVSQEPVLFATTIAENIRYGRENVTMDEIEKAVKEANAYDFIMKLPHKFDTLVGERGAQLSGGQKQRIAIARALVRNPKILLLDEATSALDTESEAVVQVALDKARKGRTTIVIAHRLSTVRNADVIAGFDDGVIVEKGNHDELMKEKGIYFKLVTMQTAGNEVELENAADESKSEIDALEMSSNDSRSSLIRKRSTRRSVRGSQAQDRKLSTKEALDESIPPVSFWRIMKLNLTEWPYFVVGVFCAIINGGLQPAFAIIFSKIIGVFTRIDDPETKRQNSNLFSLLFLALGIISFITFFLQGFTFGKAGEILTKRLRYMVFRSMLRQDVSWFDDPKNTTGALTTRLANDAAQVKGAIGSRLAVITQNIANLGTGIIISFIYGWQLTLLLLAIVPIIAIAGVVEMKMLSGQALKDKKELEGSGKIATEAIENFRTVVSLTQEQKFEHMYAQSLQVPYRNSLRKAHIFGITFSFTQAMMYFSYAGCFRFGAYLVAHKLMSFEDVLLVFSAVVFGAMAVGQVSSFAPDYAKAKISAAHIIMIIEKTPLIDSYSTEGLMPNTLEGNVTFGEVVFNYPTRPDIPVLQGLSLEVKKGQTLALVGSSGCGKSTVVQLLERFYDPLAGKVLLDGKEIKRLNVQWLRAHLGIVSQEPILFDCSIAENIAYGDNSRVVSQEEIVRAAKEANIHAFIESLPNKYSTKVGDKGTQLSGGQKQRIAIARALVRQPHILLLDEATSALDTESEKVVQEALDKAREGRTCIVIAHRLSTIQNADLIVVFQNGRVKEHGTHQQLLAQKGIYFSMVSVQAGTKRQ

SH-SY5Y [7] = test: (§3) Cytotoxicity against human SH-SY5Y cells assessed as lysosomal activity by measuring neutral red uptake at 10 to 50 uM incubated for 24 hrs followed by incubation with neutral red solution for 2 hrs by microplate reader analysis (reference value: >85%); type: cell-based; conditions: sh-sy5y, 24 h, 50 µM
[8] = target: T3, ATP-dependent translocase ABCB1; test: as §2, with “Induction of” for “Inhibition of”, “Rho123 intracellular accumulation” for “Rho123 efflux”, “measuring increase” for “measuring decrease”; type: cell-based; conditions: 1.5 h
[9] = Chromatographic hydrophobicity index, log D of compound at 250 uM at pH 7.4 by HPLC analysis; type: physicochemical; conditions: buffer
[10] = target: T1, Amine oxidase [flavin-containing] B; test: Inhibition of human microsomal MAO-B expressed in baculovirus infected BTI-TN-5B1-4 cells assessed as reduction in 4-hydroxyquinoline formation at 10 uM using kynuramine as substrate preincubated with substrate for 10 mins followed by enzyme addition by spectrophotometric analysis; conditions: BTI-TN-5B1-4, human
[11] = as §1; type: ADME, cell-based; conditions: SH-SY5Y cells, read-out: Activity
[12] = target: T1, Amine oxidase [flavin-containing] B; test: Reversible inhibition of human microsomal MAO-B expressed in baculovirus infected BTI-TN-5B1-4 cells assessed as 4-hydroxyquinoline formation using kynuramine as substrate incubated up to 140 mins by spectrophotometric analysis; conditions: bti-tn-5b1-4, 140 min
[13] = target: T1, Amine oxidase [flavin-containing] B; test: Competitive inhibition of human microsomal MAO-B expressed in baculovirus infected BTI-TN-5B1-4 cells assessed as increase in substrate Km using kynuramine as substrate preincubated with substrate at varying concentrations for 10 mins followed by enzyme addition by Lineweaver-Burk plot analysis
[14] = Cytotoxicity against human Caco2 cells assessed as cellular metabolic activity by measuring resazurin reduction at 10 to 50 uM incubated for 24 hrs followed by incubation with resazurin for 1 hr by fluorescence based assay (reference value: >85%); type: ADME, cell-based; conditions: Caco-2 cells, read-out: Activity
[15] = Stability of compound in DMSO-d6 and D2O (7:3) measured after 30 mins to 1 hr in presence of glutathione by thiol trapping assay based 1H-NMR analysis; type: physicochemical
[16] = as §3; type: cell-based; conditions: SH-SY5Y cells, read-out: Activity
[17] = Cytotoxicity against human Caco2 cells assessed as lysosomal activity by measuring neutral red uptake at 10 to 50 uM incubated for 24 hrs followed by incubation with neutral red solution for 1 hr by microplate reader analysis (reference value: >85%); type: cell-based; conditions: Caco-2 cells, read-out: Activity
[18] = target: T1, Amine oxidase [flavin-containing] B; test: Competitive inhibition of human microsomal MAO-B expressed in baculovirus infected BTI-TN-5B1-4 cells assessed as constant Vmax using kynuramine as substrate preincubated with substrate at varying concentrations for 10 mins followed by enzyme addition by Lineweaver-Burk plot analysis
[19] = target: T1, Amine oxidase [flavin-containing] B; test: Competitive inhibition of human microsomal MAO-B expressed in baculovirus infected BTI-TN-5B1-4 cells assessed as inhibition constant using kynuramine as substrate preincubated with substrate at varying concentrations for 10 mins followed by enzyme addition by Lineweaver-Burk plot analysis
Caco-2 = test: Effect on P-gp protein expression in human Caco-2 cells at 10 uM incubated for 30 mins; type: functional, cell-based
SH-SY5Y [20] = test: Induction of intracellular oxidative stress in human SH-SY5Y cells assessed as increase in reactive species level at 10 to 50 uM pretreated with DCFH-DA for 1.5 hrs followed by incubation with compound for 24 hrs by DCFH-DA dye based fluorescence assay relative to control; type: cell-based

Row | Structure (SMILES) | CHI [1] | Retention_time [2] | IC50 [3] | inhibition at 10 µM [4] | Ratio IC50 (Homo sapiens) | other results
1 | NC(=O)N1c2ccccc2C=Cc2ccccc21 [CARBAMAZEPINE] | 58.45 | 9.3 min |  |  |  | 
2 | O=C(/C=C/C=C/c1ccc2c(c1)OCO2)N1CCCCC1 [PIPERINE] | 73.45 | 10.61 min | 1050 nM | < 50% | 10 | Activity (SH-SY5Y [5]): Non-Toxic; inhibition (INH) [6]: Not Active; Activity (SH-SY5Y [7]): Non-Toxic; Activity [8]: Not Active; chromatographic logD at 250 µM [9]: 2.39
3 | N#C/C(=C\C=C\c1ccc2c(c1)OCO2)C(=O)Oc1ccccc1 |  |  | 215 nM | < 50% | > 47 | 
4 | Cn1c(=O)c2[nH]cnc2n(C)c1=O.O [THEOPHYLLINE] | 18.19 | 7.31 min |  |  |  | 
5 | N#C/C(=C\C=C\c1ccc2c(c1)OCO2)C(=O)O |  |  |  | < 50% |  | inhibition at 10 µM [10]: < 50%
6 | CCCCCCC(=O)c1ccccc1 | 111.8 | 13.67 min |  |  |  | 
7 | CCCCC(=O)c1ccccc1 [VALEROPHENONE] | 97.67 | 12.04 min |  |  |  | 
8 | N#C/C(=C\C=C\c1ccc2c(c1)OCO2)C(=O)N1CCCCC1 |  |  | 143 nM | < 50% | > 70 | viability at 24 h, up to 50 µM [11]: > 85%; Activity (Caco-2): inactive; inhibition (INH) [13]: Active; Activity (SH-SY5Y [20]): 111.1%; viability at 24 h, up to 50 µM [14]: > 85%; viability at 24 h [16]: > 85%; viability at 24 h [17]: > 85%; Activity [8]: Not Active; inhibition (INH) [18]: Active; Ki [19]: 20.6 nM
9 | c1ccc2[nH]ccc2c1 [INDOLE] | 69.15 | 10.27 min |  |  |  | 
10 | C[C@H](NCc1ccc(OCc2cccc(F)c2)cc1)C(N)=O [SAFINAMIDE] |  |  |  |  |  | inhibition (INH) [12]: Active

Continued, in another order:

Row | CHI [1] | Retention_time [2] | IC50 [3] | inhibition at 10 µM [4] | Structure (SMILES) | Ratio IC50 (Homo sapiens) | other results
11 |  |  | 471 nM | < 50% | N#C/C(=C\C=C\c1ccc2c(c1)OCO2)C(=O)NCc1ccccc1 | > 21 | 
12 | 96.73 | 12.11 min | 47.4 nM | < 50% | N#C/C(=C\C=C\c1ccc2c(c1)OCO2)C(=O)OCc1ccccc1 | > 211 | viability at 24 h, up to 50 µM [11]: > 85%; inhibition (INH) [12]: Active; inhibition (INH) [13]: Active; inhibition (INH) [6]: Active; viability at 24 h, up to 50 µM [14]: > 85%; Stability [15]: Stable; viability at 24 h [16]: > 85%; viability at 24 h [17]: > 85%; chromatographic logD at 250 µM [9]: 3.61; inhibition (INH) [18]: Active; Ki [19]: 44.1 nM
13 |  |  |  | < 50% | N#C/C(=C\C=C\c1ccc2c(c1)OCO2)C(=O)NCCc1ccccc1 |  | inhibition at 10 µM [10]: < 50%
14 | 100.75 | 12.37 min | 99.2 nM | < 50% | N#C/C(=C\C=C\c1ccc2c(c1)OCO2)C(=O)OCCc1ccccc1 | > 101 | viability at 24 h, up to 50 µM [11]: > 85%; inhibition (INH) [6]: Active; viability at 24 h, up to 50 µM [14]: > 85%; viability at 24 h [16]: > 85%; viability at 24 h [17]: > 85%; chromatographic logD at 250 µM [9]: 3.82
